In patent US6767907B2, “4-aryl-1-(indanmethyl dihydrobenzofuranmethyl or dihydrobenzothiophenemethyl) piperidines tetrahydropyridines or piperazines” (H. Lundbeck A/S, priority 1994, dated 2004):
Like-named read-outs stand apart in the source and are kept apart here.

Assays:
5-HT2A receptors = biological target: T1, 5-HT2A receptors (Rattus norvegicus, UniProt P14842); assay: Inhibition of 3H-Ketanserin binding to 5-HT2 receptors in rat cortex in vitro; settings: 3H-Ketanserin 0.5 nM; for IC50: membranes from rat cortex, read-out: 3H Ketanserin (5-HT2A) binding, IC50
T1 construct: 5-HT2A receptors in membranes from rat is determined in vitro; from tissue; host or cells: rat cortex membranes
Description: Inhibition of ^3H-Ketanserin Binding to 5-HT2 Receptors in Rat Cortex in vitro.
By this method the inhibition by drugs of the binding of ^3H-Ketanserin (0.5 nM) to 5-HT2A receptors in membranes from rat is determined in vitro .

5-HT1A receptors = biological target: T2, 5-HT1A receptors (Rattus norvegicus, UniProt P19327); assay: Inhibition of 3H-8-OH-DPAT binding to serotonin 5-HT1A receptors in rat brain in vitro; settings: for inhibition at 0.1 µM: read-out: 3H 8-OH DPAT (5-HT1A) binding, % inhibition of binding at 100 nM, at 100 nM, rat brain membranes
T2 construct: 5-HT1A receptors in membranes from rat brain minus cerebellum; from tissue; host or cells: rat brain minus cerebellum, membranes
T2 sequence (P19327 1-422): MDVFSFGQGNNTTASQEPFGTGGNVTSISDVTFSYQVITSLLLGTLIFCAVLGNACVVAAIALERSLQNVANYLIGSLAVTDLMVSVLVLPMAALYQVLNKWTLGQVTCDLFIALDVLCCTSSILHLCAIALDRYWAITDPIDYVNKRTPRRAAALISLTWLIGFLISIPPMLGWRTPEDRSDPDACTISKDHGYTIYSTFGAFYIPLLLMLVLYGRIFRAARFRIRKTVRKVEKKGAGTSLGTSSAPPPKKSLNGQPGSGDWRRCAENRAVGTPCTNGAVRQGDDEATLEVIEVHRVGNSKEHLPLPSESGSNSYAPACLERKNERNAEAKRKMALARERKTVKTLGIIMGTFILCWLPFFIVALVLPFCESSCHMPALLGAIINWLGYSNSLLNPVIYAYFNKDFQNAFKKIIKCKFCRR
Description: By this method the inhibition by drugs of the binding of the 5-HT1A agonist ^3H-8-OH-DPAT (1 nM) to 5-HT1A receptors in membranes from rat brain minus cerebellum is determined in vitro . Accordingly, this is a test for affinity for the 5-HT1A receptor. The test is performed as described by Hyttel et al., Drug. Dev. Res., 1988, 15, 389-404.

[1] = 3H-8-OH-DPAT 1 nM, membranes from rat brain minus cerebellum, read-out: 3H 8-OH DPAT (5-HT1A) binding, IC50

T1 sequence (P14842 whole entry): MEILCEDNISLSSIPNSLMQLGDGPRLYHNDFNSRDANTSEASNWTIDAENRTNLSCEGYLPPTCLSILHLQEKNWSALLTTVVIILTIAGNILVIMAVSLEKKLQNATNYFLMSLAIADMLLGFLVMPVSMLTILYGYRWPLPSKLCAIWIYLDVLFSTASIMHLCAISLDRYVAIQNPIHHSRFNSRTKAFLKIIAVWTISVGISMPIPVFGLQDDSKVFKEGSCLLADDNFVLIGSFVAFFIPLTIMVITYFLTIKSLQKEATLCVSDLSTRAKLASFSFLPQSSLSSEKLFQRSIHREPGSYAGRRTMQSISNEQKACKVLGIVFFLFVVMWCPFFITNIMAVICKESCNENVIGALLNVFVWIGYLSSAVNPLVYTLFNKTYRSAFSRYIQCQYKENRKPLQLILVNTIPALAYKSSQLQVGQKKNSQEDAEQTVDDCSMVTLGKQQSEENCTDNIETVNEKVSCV

SMILES	IC50 (5-HT2A receptors)	inhibition at 0.1 µM (5-HT1A receptors; 3H-8-OH-DPAT 1 nM)	melting point	IC50 (5-HT1A receptors; [1])	IC50 (5-HT1A receptors)	inhibition at 0.1 µM (5-HT2A receptors; read-out: 3H Ketanserin (5-HT2A) binding, % inhibition of binding at 100 nM, at 100 nM, rat cortex membranes)
Nc1ccc2c(c1)C(CN1CCN(c3ccc(Cl)c(Cl)c3)CC1)CC2 (stereo not drawn) [Compound 2h, 1-(6-Aminoindan-1-ylmethyl)-4-(3,4-dichlorophenyl)piperazine]	4.1 nM	19%	156 to 158 °C	–	–	–
CC(=O)Nc1ccc2c(c1)C(CN1CCC(c3ccc(F)cc3)CC1)CC2 (stereo not drawn) [Compound 4a, 1-(6-Acetylaminoindan-1-ylmethyl)-4-(4-fluorophenyl)piperidine]	4 nM	–	159 to 162 °C	11 nM	–	–
CC(=O)Nc1ccc2c(c1)C(CN1CCN(c3ccc(F)cc3)CC1)CC2 (stereo not drawn) [Compound 4b, 1-(6-Acetylaminoindan-1-ylmethyl)-4-(4-fluorophenyl)piperazine]	2.9 nM	–	179 to 187 °C	21 nM	–	–
CC(=O)Nc1ccc2c(c1)C(CN1CCC(c3ccc(F)cc3)CC1)CS2 (stereo not drawn) [Compound 4c, 1-(5-Acetylamino-2,3-dihydrobenzothiophen-3-ylmethyl)-4-(4-fluorophenyl)piperidine]	2.3 nM	–	140 to 142 °C	28 nM	–	–
CC(=O)Nc1ccc2c(c1)C(CN1CCN(c3ccc(Cl)cc3)CC1)CC2 (stereo not drawn) [Compound 4d, 1-(6-Acetylaminoindan-1-ylmethyl)-4-(4-chlorophenyl)piperazine]	5 nM	–	191 to 194 °C	12 nM	–	–
CC(=O)Nc1ccc2c(c1)C(CN1CCN(c3cccc(Cl)c3)CC1)CC2 (stereo not drawn) [Compound 4e, 1-(6-Acetylaminoindan-1-ylmethyl)-4-(3-chlorophenyl)piperazine]	5 nM	–	176 to 178 °C	38 nM	–	–
CC(=O)Nc1ccc2c(c1)C(CN1CC=C(c3ccc(F)cc3)CC1)CC2 (stereo not drawn) [Compound 4h, 1-(6-Acetylaminoindan-1-ylmethyl)-4-(4-fluorophenyl)-1,2,3,6-tetrahydropyridine]	2.8 nM	–	156 to 161 °C	11 nM	–	–
CS(=O)(=O)Nc1ccc2c(c1)C(CN1CCC(c3ccc(F)cc3)CC1)CC2 (stereo not drawn) [Compound 4i, 4-(4-Fluorophenyl)-1-(6-methansulfonylaminoindan-1-ylmethyl)piperidine]	2.1 nM	–	152 to 155 °C	500 nM	–	–
O=C(Nc1ccc2c(c1)C(CN1CCC(c3ccc(F)cc3)CC1)CC2)C1CC1 (stereo not drawn) [Compound 4j, 1-(6-Cyclopropylcarbonylaminoindan-1-ylmethyl)-4-(4-fluorophenyl)piperidine]	15 nM	–	134 to 140 °C	45 nM	–	–
O=C(Nc1ccc2c(c1)C(CN1CCC(c3ccc(F)cc3)CC1)CC2)C1CCCC1 (stereo not drawn) [Compound 4k, 1-(6-Cyclopentylcarbonylaminoindan-1-ylmethyl)-4-(4-fluorophenyl)piperidine]	30 nM	–	177 to 178 °C	240 nM	–	–
CC(=O)Nc1ccc2c(c1)C(CN1CCC(c3ccc(C)cc3)CC1)CC2 (stereo not drawn) [Compound 4n, 1-(6-Acetylaminoindan-1-ylmethyl)-4-(4-methylphenyl)piperidine]	3.9 nM	–	173 to 175 °C	27 nM	–	–
CC(=O)Nc1ccc2c(c1)C(CN1CCN(c3ccc(Cl)c(Cl)c3)CC1)CC2 (stereo not drawn) [Compound 4o, 1-(6-Acetylaminoindan-1-ylmethyl)-4-(3,4-dichlorophenyl)piperazine]	51 nM	–	160 to 163 °C	11 nM	–	–
O=C(Nc1ccc(F)cc1)Nc1ccc2c(c1)C(CN1CCC(c3ccc(F)cc3)CC1)CC2 (stereo not drawn) [Compound 5b, 1-[6-(4-Fluorophenyl)aminocarbonylaminoindan-1-ylmethyl]-4-(4-fluorophenyl)-piperidine]	37 nM	–	235 to 238 °C	> 100000 nM	–	–
CN(C)C(=S)Nc1ccc2c(c1)C(CN1CCC(c3ccc(F)cc3)CC1)CC2 (stereo not drawn) [Compound 6b, 1-(6-Dimethylaminothiocarbonylaminoindan-1-ylmethyl)-4-(4-fluorophenyl)piperidine]	6.7 nM	–	175 to 180 °C	1200 nM	–	–
O=C(Nc1ccc2c(c1)C(CN1CCC(c3ccc(F)cc3)CC1)CC2)N1CCCC1 (stereo not drawn) [Compound 6c, 4-(4-fluorophenyl)-1-[6-(1-pyrrolidinyl)carbonylaminoindan-1-ylmethyl]piperidine]	9.9 nM	–	190 to 193 °C	8200 nM	–	–
CC(=O)Nc1ccc2c(c1)C(CN1CC=C(c3c[nH]c4cc(Cl)ccc34)CC1)CC2 (stereo not drawn) [Compound 11e, 3-[1-(6-Acetylaminoindan-1-ylmethyl)-1,2,3,6-tetrahydropyridin-4-yl]-6-chloro-1H-indole]	130 nM	–	–	–	27 nM	–
CC(=O)Nc1ccc2c(c1)C(CN1CCC(c3c[nH]c4cc(Cl)ccc34)CC1)CC2 (stereo not drawn) [Compound 11f, 3-[1-(6-Acetylaminoindan-1-ylmethyl)piperidin-4-yl]-6-chloro-1H-indole]	21 nM	–	–	8 nM	–	–
CC(=O)Nc1ccc2c(c1)C(CN1CC=C(c3c[nH]c4ccc(Cl)cc34)CC1)CC2 (stereo not drawn) [Compound 11g, 3-[1-(6-Acetylaminoindan-1-ylmethyl)-1,2,3,6-tetrahydropyridin-4-yl]-5-chloro-1H-indole]	180 nM	–	–	–	26 nM	–
O=C1CCCN1c1ccc2c(c1)C(CN1CCC(c3ccc(F)cc3)CC1)CC2 (stereo not drawn) [Compound 12a, 4-(4-Fluorophenyl)-1-[6-(1-pyrrolidin-2-onyl)indan-1-ylmethyl]piperidine]	3.5 nM	–	–	340 nM	–	–
CC(=O)Nc1ccc2c(c1)C(CN1CC=C(c3cn(C)c4cc(Cl)ccc34)CC1)CC2 (stereo not drawn) [Compound 15a, 3-[1-(6-Acetylaminoindan-1-ylmethyl)-1,2,3,6-tetrahydropyridin-4-yl]-6-chloro-1-methyl-1H-indole]	–	–	189 to 193 °C	91 nM	–	25%
CC(=O)Nc1ccc2c(c1)C(CN1CCC(c3cn(C)c4cc(Cl)ccc34)CC1)CC2 (stereo not drawn) [Compound 15b, 3-[1-(6-Acetylaminoindan-1-ylmethyl)piperidin-4-yl]-6-chloro-1-m ethyl-1H-indole]	300 nM	25%	–	–	–	–
CNc1ccc2c(c1)C(CN1CCC(c3ccc(F)cc3)CC1)CC2 (stereo not drawn) [Compound 16a, 4-(4-Fluorophenyl)-1-(6-methylaminoindan-1-ylmethyl)piperidine]	1.6 nM	–	–	170 nM	–	–
